This passage reports IC50 results from patent publication US8586591B2, “Aminopyrazine derivative and medicine” (Nippon Shinyaku Co., Ltd., priority 2009, dated 2013).

The target of assay [1] is T1, JAK2 tyrosine kinase (Homo sapiens, UniProt O60674).
T1 construct: purchased Carnabioscience Co
Kind of assay: Test 1: inhibitory activity to JAK2 tyrosine kinase (ELISA). In kind it is biochemical. The conditions noted are these: 25 μM ATP in substrate solution, 30° C. for 1 hour, n=2. In a few lines:
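This is an ELISA read at A450 (HRP anti-phosphotyrosine antibody, TMB) of biotin-peptide phosphorylation captured on streptavidin. Enzyme solution was 0.75 nM JAK2, and the substrate solution was 625 nM peptide with 25 μM ATP in Tris pH 7.5 buffer. The reaction ran 1 h at 30 °C with compounds in duplicate, and IC50 was fitted non-linearly.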
On the technique in general: In an ELISA, binding on a coated surface is turned into a signal by an enzyme label.

Assay [2] has as its target T2, JAK3 tyrosine kinase (Homo sapiens, UniProt P52333).
T2 construct: purchased Carnabioscience Co
T2 sequence (P52333 1-1124): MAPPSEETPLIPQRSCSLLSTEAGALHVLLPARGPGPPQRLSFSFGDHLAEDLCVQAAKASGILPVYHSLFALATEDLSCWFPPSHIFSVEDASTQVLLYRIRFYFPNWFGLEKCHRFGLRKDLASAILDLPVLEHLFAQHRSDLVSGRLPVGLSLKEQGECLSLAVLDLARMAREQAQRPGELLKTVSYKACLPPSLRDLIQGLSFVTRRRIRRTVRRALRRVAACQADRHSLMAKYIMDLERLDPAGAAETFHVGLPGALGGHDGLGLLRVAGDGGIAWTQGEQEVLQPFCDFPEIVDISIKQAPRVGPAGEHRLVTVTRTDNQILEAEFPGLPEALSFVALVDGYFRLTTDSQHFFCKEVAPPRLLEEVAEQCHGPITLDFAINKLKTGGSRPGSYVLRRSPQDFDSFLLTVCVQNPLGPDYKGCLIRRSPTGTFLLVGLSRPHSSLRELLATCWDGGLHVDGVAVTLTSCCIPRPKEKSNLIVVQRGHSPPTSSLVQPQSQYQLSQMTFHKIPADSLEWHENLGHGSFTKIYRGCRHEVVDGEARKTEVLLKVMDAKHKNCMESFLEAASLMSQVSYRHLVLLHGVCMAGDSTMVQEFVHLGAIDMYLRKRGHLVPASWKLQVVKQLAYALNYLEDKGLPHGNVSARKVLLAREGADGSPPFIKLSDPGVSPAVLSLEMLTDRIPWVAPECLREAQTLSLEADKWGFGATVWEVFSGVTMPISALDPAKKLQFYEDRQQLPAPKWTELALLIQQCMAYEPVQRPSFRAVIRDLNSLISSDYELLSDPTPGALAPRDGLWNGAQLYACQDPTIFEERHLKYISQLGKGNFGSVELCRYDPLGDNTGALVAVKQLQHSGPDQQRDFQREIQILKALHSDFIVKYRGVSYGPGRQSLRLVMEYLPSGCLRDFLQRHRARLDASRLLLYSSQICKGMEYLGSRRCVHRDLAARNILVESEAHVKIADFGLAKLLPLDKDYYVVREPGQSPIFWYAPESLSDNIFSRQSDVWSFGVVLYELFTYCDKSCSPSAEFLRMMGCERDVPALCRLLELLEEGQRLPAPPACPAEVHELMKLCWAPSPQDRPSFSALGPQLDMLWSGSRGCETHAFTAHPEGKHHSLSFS
Kind of assay: Test 1: inhibitory activity to JAK3 tyrosine kinase (ELISA). In kind it is biochemical. The conditions noted are these: 25 μM ATP in substrate solution, 30° C. for 1 hour, n=2. The method in brief: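 ELISA of JAK3 kinase activity with absorbance read at 450 nm. Compounds were tested from DMSO dilution series at 100-fold the measurement concentrations (1000–0.01 μM), diluted up to 20 times in assay buffer, against a DMSO negative control. IC50 was estimated by non-linear regression of absorbance.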

The structures appear in SMILES notation. Structures can show the parent of a compound that is named as a salt.

T1 sequence (O60674 whole entry): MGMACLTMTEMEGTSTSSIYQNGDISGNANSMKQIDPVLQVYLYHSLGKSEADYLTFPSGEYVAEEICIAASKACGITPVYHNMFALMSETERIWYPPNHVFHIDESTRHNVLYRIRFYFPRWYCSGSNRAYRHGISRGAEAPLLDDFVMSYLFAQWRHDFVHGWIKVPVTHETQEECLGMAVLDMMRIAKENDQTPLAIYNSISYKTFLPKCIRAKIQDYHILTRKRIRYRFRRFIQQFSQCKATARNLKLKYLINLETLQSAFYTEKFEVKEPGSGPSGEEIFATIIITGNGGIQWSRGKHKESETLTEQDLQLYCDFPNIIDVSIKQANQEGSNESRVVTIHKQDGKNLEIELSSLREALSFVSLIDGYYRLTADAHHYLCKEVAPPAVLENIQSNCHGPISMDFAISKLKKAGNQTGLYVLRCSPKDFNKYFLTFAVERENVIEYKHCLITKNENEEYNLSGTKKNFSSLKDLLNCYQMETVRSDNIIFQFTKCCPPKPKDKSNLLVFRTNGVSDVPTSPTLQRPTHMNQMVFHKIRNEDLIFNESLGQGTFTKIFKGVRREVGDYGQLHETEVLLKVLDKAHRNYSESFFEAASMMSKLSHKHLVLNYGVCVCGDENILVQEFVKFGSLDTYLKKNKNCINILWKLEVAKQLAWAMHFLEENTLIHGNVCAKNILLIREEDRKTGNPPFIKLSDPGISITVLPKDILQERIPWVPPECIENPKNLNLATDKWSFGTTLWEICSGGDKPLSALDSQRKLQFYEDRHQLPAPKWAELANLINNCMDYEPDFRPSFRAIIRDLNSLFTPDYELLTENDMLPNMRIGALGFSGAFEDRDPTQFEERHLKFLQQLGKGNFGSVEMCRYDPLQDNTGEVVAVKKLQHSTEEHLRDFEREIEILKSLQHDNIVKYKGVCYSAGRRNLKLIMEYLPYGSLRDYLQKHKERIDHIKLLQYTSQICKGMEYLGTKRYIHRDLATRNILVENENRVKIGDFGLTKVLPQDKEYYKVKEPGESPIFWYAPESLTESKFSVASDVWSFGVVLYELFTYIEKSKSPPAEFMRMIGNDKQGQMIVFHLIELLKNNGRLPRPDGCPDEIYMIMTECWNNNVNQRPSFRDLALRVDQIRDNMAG

As for `CCn1cc(-c2cc(Nc3cnccn3)nc(N[C@@H](C)c3ccc(F)cc3)c2)cn1` [Example 46, (S)-4-(1-Ethyl-1H-pyrazol-4-yl)-N^2-[1-(4-fluorophenyl)ethyl]-N^6-(pyrazin-2-yl)pyridine-2,6-diamine], the IC50 (usually the point on the concentration scale where inhibition reaches its midpoint) in assay [1] worked out at 3.7 nM; in assay [2], 93 nM.
Regarding `C[C@H](Nc1cc(N2CC(O)(C(F)(F)F)C2)cc(Nc2cnccn2)n1)c1ccc(F)cc1` [Example 206, (S)-1-{2-[1-(4-Fluorophenyl)ethylamino]-6-(pyrazin-2-ylamino)pyridin-4-yl}-3-(trifluoromethyl)azetidin-3-ol hydrochloride], the IC50 in assay [1] was determined as 10 nM; in assay [2], 360 nM.
Take `CNC1CN(c2cc(Nc3cnccn3)nc(N[C@@H](C)c3ccc(F)cc3)n2)C1` [Example 221, (S)—N^2-[1-(4-Fluorophenyl)ethyl]-6-[3-(methylamino)azetidin-1-yl]-N^4-(pyrazin-2-yl)pyrimidine-2,4-diamine]: the IC50 in assay [1] came to 1.5 nM; in assay [2], 59 nM.
In the case of `C[C@H](Nc1nc(Nc2cnccn2)cc(N2CCNC2=O)n1)c1ccc(F)cc1` [Example 21, (S)-1-{2-[1-(4-Fluorophenyl)ethylamino]-6-(pyrazin-2-ylamino)pyrimidin-4-yl}imidazolidin-2-one hydrochloride], the results for the 50% inhibitory concentration (IC50) in assay [1] and in assay [2] were 8.7 nM and 950 nM, respectively.
As for `C[C@H](Nc1nc(NCCN2CCCC2)cc(Nc2cnccn2)n1)c1ccc(F)cc1` [Example 96, (S)—N^2-[1-(4-Fluorophenyl)ethyl]-N^4-(pyrazin-2-yl)-N^6-[2-(pyrrolidin-1-yl)ethyl]pyrimidine-2,4,6-triamine], the half-inhibitory concentration (IC50) in assay [1] was 1.4 nM; in assay [2], 33 nM.
As to `C[C@H](Nc1cc(N2CC(N3CCOCC3)C2)cc(Nc2cnccn2)n1)c1ccc(F)cc1` [Example 233, (S)—N^2-[1-(4-Fluorophenyl)ethyl]-4-[3-morpholinoazetidin-1-yl]-N^6-(pyrazin-2-yl)pyridine-2,6-diamine], the IC50 in assay [1] amounted to 5.8 nM; in assay [2], 140 nM.
For the molecule `C[C@H](Nc1cc(N2CCC(O)(CO)CC2)cc(Nc2cnccn2)n1)c1ccc(F)cc1` [Example 125, (S)-1-{2-[1-(4-Fluorophenyl)ethylamino]-6-(pyrazin-2-ylamino)pyridin-4-yl}-4-(hydroxymethyl)piperidin-4-ol], the IC50 in assay [1] worked out at 1.6 nM; in assay [2], 130 nM.
On to `C[C@H](Nc1cc(OCCCO)cc(Nc2cnccn2)n1)c1ccc(F)cc1` [Example 41, hydrochloride], for which the results for the IC50 in assay [1] and in assay [2] were 1.1 nM and 51 nM, respectively.
As for `C[C@H](Nc1nc(Nc2cnccn2)cc(-c2cc[nH]c2)n1)c1ccc(F)cc1` [Example 66, (S)—N^2-[1-(4-Fluorophenyl)ethyl]-N^4-(pyrazin-2-yl)-6-(1H-pyrrol-3-yl)pyrimidine-2,4-diamine], the figures for the IC50 in assay [1] and in assay [2] were 1.8 nM and 37 nM, respectively.
On to `CCS(=O)(=O)NC1CN(c2cc(Nc3cnccn3)nc(N[C@@H](C)c3ccc(F)cc3)n2)C1` [Example 190, (S)—N-(1-{2-[1-(4-Fluorophenyl)ethylamino]-6-(pyrazin-2-ylamino)pyrimidin-4-yl}azetidin-3-yl)ethanesulfonamide], for which the IC50 in assay [1] was found to be 1.2 nM; in assay [2] it was 58 nM.
Regarding `C[C@H](Nc1cc(-c2ccnn2C)cc(Nc2cnccn2)n1)c1ccc(F)cc1` [Example 47, (S)—N^2-[1-(4-Fluorophenyl)ethyl]-4-(1-methyl-1H-pyrazol-5-yl)-N^6-(pyrazin-2-yl)pyridine-2,6-diamine], the values for the IC50 in assay [1] and in assay [2] were 12 nM and 1300 nM, respectively.
Consider `C[C@H](Nc1cc(OCCO)cc(Nc2cnccn2)n1)c1ccc(F)cc1` [Example 12, (S)-2-{2-[1-(4-Fluorophenyl)ethylamino]-6-(pyrazin-2-ylamino)pyridin-4-yloxy}ethanol hydrochloride], for which the figures for the IC50 in assay [1] and in assay [2] were 0.92 nM and 79 nM, respectively.
Regarding `C[C@H](Nc1nc(Nc2cnccn2)cc(N2CC(C#N)C2)n1)c1ccc(F)cc1` [Example 178, (S)-1-{2-[1-(4-Fluorophenyl)ethylamino]-6-(pyrazin-2-ylamino)pyrimidin-4-yl}azetidine-3-carbonitrile], the values for the half-maximal inhibitory concentration (IC50) in assay [1] and in assay [2] were 1 nM and 82 nM, respectively.
As to `C[C@H](Nc1cc(N2CC(O)C2)cc(Nc2cnccn2)n1)c1ccc(F)cc1` [Example 202, (S)-1-{2-[1-(4-Fluorophenyl)ethylamino]-6-(pyrazin-2-ylamino)pyridin-4-yl}azetidin-3-ol hydrochloride], the results for the IC50 in assay [1] and in assay [2] were 4.7 nM and 470 nM, respectively.
For `C[C@H](Nc1cc(NC(N)=O)cc(Nc2cnccn2)n1)c1ccc(F)cc1` [Example 210, (S)-1-[2-[1-(4-Fluorophenyl)ethylamino]-6-(pyrazin-2-ylamino)pyridin-4-yl]urea], the concentration for half-maximal inhibition (IC50) in assay [1] was 3.2 nM; in assay [2], 180 nM.
With `C[C@H](Nc1nc(Nc2cnccn2)cc(-c2cn[nH]c2)n1)c1ccc(F)cc1` [Example 11, (S)—N^2-[1-(4-Fluorophenyl)ethyl]-N^4-(pyrazin-2-yl)-6-(1H-pyrazol-4-yl)pyrimidine-2,4-diamine hydrochloride], the figures for the IC50 in assay [1] and in assay [2] were 0.82 nM and 36 nM, respectively.
`Cc1cn(-c2cc(Nc3cnccn3)nc(N[C@@H](C)c3ccc(F)cc3)n2)cn1` [Example 118, (S)—N^2-[1-(4-Fluorophenyl)ethyl]-6-(4-methyl-1H-imidazol-1-yl)-N^4-(pyrazin-2-yl)pyrimidine-2,4-diamine hydrochloride]: the IC50 in assay [1] came out at 1.6 nM; in assay [2], 290 nM.
As for `C[C@H](Nc1nc(Nc2cnccn2)cc(-c2ccoc2)n1)c1ccc(F)cc1` [Example 82, (S)—N^2-[1-(4-Fluorophenyl)ethyl]-6-(furan-3-yl)-N^4-(pyrazin-2-yl)pyrimidine-2,4-diamine hydrochloride], the IC50 was determined as 1.7 nM in assay [1] and 99 nM in assay [2].
For `C[C@H](Nc1cc(-c2ccc(S(N)(=O)=O)cc2)cc(Nc2cnccn2)n1)c1ccc(F)cc1` [Example 126, (S)-4-{2-[1-(4-Fluorophenyl)ethylamino]-6-(pyrazin-2-ylamino)pyridin-4-yl}benzenesulfonamide], the IC50 is 8.8 nM in assay [1] and 630 nM in assay [2].
The like results for `C[C@H](Nc1nc(Nc2cnccn2)cc(N2C[C@H](O)[C@@H](O)C2)n1)c1ccc(F)cc1` [Example 110, (3S,4S)-1-{2-[(S)-1-(4-Fluorophenyl)ethylamino]-6-(pyrazin-2-ylamino)pyrimidin-4-yl}pyrrolidin-3,4-diol] were, in that order, 0.67 nM and 44 nM.
`C[C@H](Nc1nc(Nc2cnccn2)cc(OCC2CCCO2)n1)c1ccc(F)cc1` (stereo partly drawn) [Example 94, N^2-[(S)-1-(4-Fluorophenyl)ethyl]-N^4-(pyrazin-2-yl)-6-[(tetra hydrofuran-2-yl)methoxy]pyrimidine-2,4-diamine]: the IC50 in assay [1] worked out at 1.7 nM; in assay [2], 77 nM.
For `COc1ncc(-c2cc(Nc3cnccn3)nc(N[C@@H](C)c3ccc(F)cc3)n2)s1` [Example 53, (S)—N^2-[1-(4-Fluorophenyl)ethyl]-6-(2-methoxythiazol-5-yl)-N^4-(pyrazin-2-yl)pyrimidine-2,4-diamine], the IC50 in assay [1] stood at 5.9 nM; in assay [2] it was 390 nM.
The like results for `C[C@H](Nc1nc(Nc2cnccn2)cc(N2CCC[C@H]2C(N)=O)n1)c1ccc(F)cc1` [Example 64, (S)-1-{2-[(S)-1-(4-Fluorophenyl)ethylamino]-6-(pyrazin-2-ylamino)pyrimidin-4-yl}pyrrolidin-2-carboxamide hydrochloride] were, in that order, 7 nM and 220 nM.
Consider `CC(Nc1cc(Nc2cnccn2)nc(N[C@@H](C)c2ccc(F)cc2)n1)c1cccnc1` (stereo partly drawn) [Example 104, (S)—N^2-[1-(4-Fluorophenyl)ethyl]-N^4-(pyrazin-2-yl)-N^6-[1-(pyridin-3-yl)ethyl]pyrimidine-2,4,6-triamine], for which the IC50 in assay [1] stood at 1 nM; in assay [2], 39 nM.
